Assay results published in patent publication US20120302516A1, “NANOPARTICLES FOR DRUG DELIVERY” (UNIVERSITY OF LOUISVILLE RESEARCH FOUNDATION, INC., priority 2009, published 2012).
Structures can show the parent of a compound that is named as a salt.

Tests used:
[1] = test system: MCF-7 cells; experiment: AEM field-induced drug release in MCF-7 cells; dead (floating) cells counted by hemocytometer after 48 h; type: cell-based, Human; settings: AEM field exposure No, no Fe3O4, 0.3 mg Dox
Method: Breast cancer MCF-7 cells were treated with the resultant Dox-NP formulations, and the treated cells then were either allowed to incubate or briefly exposed to an AEM field to induce drug release from the Dox-NP formulations.
AEM field study. Results of MCF-7 cells treated with nanoparticle-doxorubicin formulations followed by alternating electromagnetic (AEM) field exposure (15 mins, 350 A, 203 KHz) were obtained. Cells plated in 30 mm dishes were treated with NP formulations at a 0.5 mg Fe3O4 dose unless otherwise specified. Doxorubicin loadings per mg NP formulation were as follows: dNP.AO.Dox (0.64 mg Dox/mg), sNP.AO.Dox (0.43 mg Dox/mg), NP.Dox (0.05 mg Dox/mg). […]
Cell culture toxicity study. Human breast cancer cells (MCF-7) were purchased from American Type Culture Collection (VA, USA). Cells were plated in 30 mm dishes at ˜4˜10^5 cells/dish, and then grown up to 50-60% confluency in DMEM, 1% Pennstrep (Mediatech, Inc, VA) and 10% FBS (Valley Biomedical, Winchester, Va.).
Alternating electromagnetic field-induced drug release in MCF-7 cells. […]
Each measured amount of NP formulation was diluted to 2 mL by adding DMEM containing 10% FBS. […]

[2] = AEM field-mediated release of FITC conjugates from NP.(AO).FITC particles, supernatant fluorescence (HPLC); type: physicochemical; settings: water, AEM field 201.4 A, 203 kHz, 30 minutes, after washes
Source text: The fluorophore FITC-CHO was attached to iron oxide nanoparticles by reaction with NP-bound aminooxy compounds (previously described compounds 6.1, 7.1 and the diol analog of 7.1) to show the influence of resident hydroxyl functionality on the binding and release properties of derived iron oxide formulations. Scheme E below depicts the fluorophore aldehyde and the three oxime ether conjugates selected for this study. Using the stepwise synthesis method, FITC-CHO was mixed with NP-AO particles derived from the three aminooxy compounds to give the NP.(AO).FITC fluorophore formulations. […] The relative binding and release properties were measured by fluorescence spectroscopy on the supernatant solutions after magnetic separation of the nanoparticles and/or NP.(AO).FITC particles.
Integration of the supernatant fluorescence after NP washing and after AEM field irradiation is indicative of the binding to the nanoparticles and the release of FITC into the supernatant. […]
To a suspension of the NP.AO (3 mg) in methanol at room temperature was added a solution of FITC-CHO in methanol (0.01M, 50 μL/mg of NP.AO). […] The particles then were magnetically separated, the supernatant was removed and analyzed. The particles were washed twice with methanol (3× reaction volume) and the supernatants collected each time and analyzed. […]

SMILES	MCF-7 cell death, extent (major/minor) ([1]; continuation line of the cell death cell)	MCF-7 cell death ([1]; relative to 'cells only' control, 48 h)	release into supernatant (fluorescence) after AEM field exposure [2]
COc1cccc2c1C(=O)c1c(O)c3c(c(O)c1C2=O)C[C@@](O)(C(=O)CO)C[C@@H]3O[C@H]1C[C@H](N)[C@H](O)[C@H](C)O1 [Dox, doxorubicin.HCl]	(major)	Yes	
O=CCCCNC(=S)Nc1ccc(-c2c3ccc(=O)cc-3oc3cc(O)ccc23)c(C(=O)O)c1 [FITC-CHO]			no recovery of fluorescence after exposure to an AEM field
C[N+](CCO)(CCO)CCO/N=C/CCCNC(=S)Nc1ccc(-c2c3ccc(=O)cc-3oc3cc(O)ccc23)c(C(=O)O)c1 [FITC-III]			considerable FITC-conjugate is released into solution
